Source: the OligoGym collection
Several values for one entry are separate records, joined by “and”; a condition that tells them apart may be missing. Equal entries are not always repeated. After the bases stand the sugars from the 5' end (letter, count) and the backbone: PS all phosphorothioate, else s phosphorothioate and o phosphodiester by linkage. Methylation of C is not given here. e = 2'-O-(2-methoxyethyl) (MOE); k = constrained ethyl (cEt); d = 2'-deoxy (DNA)

Target: IRF5
Conditions: ASO

| Sequence | target mRNA inhibition (KARPAS-229, 4 µM) | further results |
| --- | --- | --- |
| ACCACTGTGTACCCCA (sugars kkdddddddddkekek, PS) | 17% | – |
| GTGAGTCTCAAACCAG (sugars kkkddddddddkekek, PS) | 0% | – |
| CACATCTCCACATCAG (sugars kekdddddddddeekk, PS) | 26% | – |
| TATCTCCGTCCTGGCT (sugars kdddddddddkekeke, PS) | 0% | – |
| GGTGTATTTCCCTGTC (sugars kkkddddddddkekek, PS) | 0% | – |
| CCAATGCAACATCCAT (sugars kkdddddddddkekek, PS) | 0% | – |
| GTGAGTCTCAAACCAG (sugars kkkddddddddkdkdk, PS) | 0% | – |
| ATCACCACTGTGTACC (sugars kkddddddddddkeke, PS) | 0% | – |
| TACCCAATGCAACATC (sugars k3 d10 k3, PS) | 0% | – |
| CCACTGTGTACCCCAT (sugars kkdddddddddkdkdk, PS) | 54% | – |
| AATTTTGCATTCCATA (sugars k3 d10 k3, PS) | 41% | – |
| TTATCTCCGTCCTGGC (sugars kkdddddddddkekek, PS) | 0% | – |
| GAAGTGAGTCTCAAAC (sugars kddddddddddkekek, PS) | 44% | – |
| GGTCTGGCCCTTTTGG (sugars kekdddddddddeekk, PS) | 13% | – |
| CATTCCATATACACAC (sugars k3 d9 k3 e1, PS) | 39% | – |
| ATCACCACTGTGTACC (sugars k3 d10 k3, PS) | 11% | – |
| CACATCTCCACATCAG (sugars kkkddddddddkdkdk, PS) | 39% | – |
| ATGAGTCATGGGCTGA (sugars kkkdddddddddkeke, PS) | 9% | – |
| GCTTGGTCTTGACCTC (sugars kekdddddddddeekk, PS) | 46% | – |
| TTGTCTAGTGTCATGG (sugars kddddddddddkekek, PS) | 44% | – |
| TTCTTGGACTCTCAAG (sugars kdddddddddkekeke, PS) | 0% | – |
| TATCTCCGTCCTGGCT (sugars kkddddddddkekekk, PS) | 6% | – |
| GCTGTCACATCTCCAC (sugars kkddddddddkekekk, PS) | 29% | – |

| Sequence | target mRNA inhibition (KARPAS-229, 4 µM) | further results |
| --- | --- | --- |
| ATGAGTCATGGGCTGA (sugars k3 d10 k3, PS) | 21% | – |
| AGATGGTGTTATCTCC (sugars kekdddddddddeekk, PS) | 0% | – |
| AGGTTCTTGGACTCTC (sugars k3 d9 k3 e1, PS) | 19% | – |
| GAGTCATGGGCTGAGG (sugars kdddddddddkekeke, PS) | 0% | – |
| TATTTCTGCTCCAGGT (sugars kkddddddddddkeke, PS) | 49% and 71% | target mRNA inhibition (KARPAS-229, 0.44444 µM): 40%; target mRNA inhibition (KARPAS-229, 1.33333 µM): 53%; target mRNA inhibition (KARPAS-229, 12 µM): 79% |
| TGTCTAGTGTCATGGA (sugars kkddkddddddeeekk, PS) | – | target mRNA inhibition (A-431, 0.00412 µM): 0%; target mRNA inhibition (A-431, 0.01225 µM): 0%; target mRNA inhibition (A-431, 0.03704 µM): 9%; target mRNA inhibition (A-431, 0.11111 µM): 17%; target mRNA inhibition (A-431, 0.33333 µM): 13%; target mRNA inhibition (A-431, 1 µM): 29% |
| GTCTAGTGTCATGGAA (sugars kkddddddddkekekk, PS) | 9% | – |
| GGAGTGAGACGAGCAA (sugars k3 d9 k3 e1, PS) | 33% | – |
| ATGGTGTTATCTCCGT (sugars kkddddddddkekekk, PS) | 0% | – |
| ATGAGTCATGGGCTGA (sugars kkkddddddddkdkdk, PS) | 0% | – |
| GTGTATTTCCCTGTCT (sugars kkddddddddkekekk, PS) | 0% | – |
| CACATCTCCACATCAG (sugars kdddddddddkekeke, PS) | 2% | – |
| AGGAGTGAGACGAGCA (sugars kkkddddddddkekek, PS) | 24% | – |
| AGCTTGGTCTTGACCT (sugars kkdddddddddkekek, PS) | 8% | – |
| GGTCTGGCCCTTTTGG (sugars kkdddddddddkekek, PS) | 3% | – |
| GTCTTGACCTCCCGCT (sugars kkdddddddddkekek, PS) | 40% | – |
| TGTCTAGTGTCATGGA (sugars kkddddddddddkeke, PS) | 44% | – |
| GGACGAGTTATGGGAA (sugars k3 d10 k3, PS) | 37% | – |
| TCTGATATGATACCTA (sugars k3 d10 k3, PS) | 63% and 78% | target mRNA inhibition (A-431, 0.00412 µM): 8%; target mRNA inhibition (A-431, 0.01225 µM): 27%; target mRNA inhibition (A-431, 0.03704 µM): 54%; target mRNA inhibition (A-431, 0.11111 µM): 78%; target mRNA inhibition (A-431, 0.33333 µM): 89%; target mRNA inhibition (A-431, 1 µM): 92%; target mRNA inhibition (KARPAS-229, 0.44444 µM): 59%; target mRNA inhibition (KARPAS-229, 1.33333 µM): 68%; target mRNA inhibition (KARPAS-229, 12 µM): 83% |
| CTGTCACATCTCCACA (sugars kkddddddddddkeke, PS) | 19% | – |
| CAACATCCATCAATGA (sugars k3 d10 k3, PS) | 0% | – |
| CCCAATGCAACATCCA (sugars kkdddddddddkekek, PS) | 0% | – |
| ACCACTGTGTACCCCA (sugars kkkddddddddkdkdk, PS) | 40% | – |

| Sequence | target mRNA inhibition (KARPAS-229, 4 µM) | further results |
| --- | --- | --- |
| GGTCTTTGAGGTCTGG (sugars kkddddddddddkeke, PS) | 67% and 63% | target mRNA inhibition (KARPAS-229, 0.44444 µM): 39%; target mRNA inhibition (KARPAS-229, 1.33333 µM): 43%; target mRNA inhibition (KARPAS-229, 12 µM): 72% |
| GATGGTGTTATCTCCG (sugars k3 d9 k3 e1, PS) | 0% | – |
| CTGTCACATCTCCACA (sugars kkdddddddddkdkdk, PS) | 6% | – |
| GCTGTCACATCTCCAC (sugars kkkdddddddddkeke, PS) | 3% | – |
| CCACTGTGTACCCCAT (sugars k3 d9 k3 e1, PS) | 57% | – |
| TCCAATTTTGCATTCC (sugars kkddddddddkekekk, PS) | 15% | – |
| CACTGACACAGGCGGA (sugars kdddddddddddekek, PS) | 0% | – |
| TGAGTCATGGGCTGAG (sugars kkkddddddddkdkdk, PS) | 3% | – |
| CATTCCATATACACAC (sugars kkdddddddddkekek, PS) | 54% | – |
| CTTTCTTGTCTAGTGT (sugars k3 d10 k3, PS) | 48% | – |
| CAGGTTCTTGGACTCT (sugars kddddddddddkekek, PS) | 0% | – |
| GTCTGGCCCTTTTGGA (sugars k2 d9 e3 k2, PS) | 0% | – |
| ACCATTCTATGCCTTT (sugars kkddddddddddkeke, PS) | 51% | – |
| CAGGTTCTTGGACTCT (sugars kkkddddddddkdkdk, PS) | 0% | – |
| TGTGACTGTATTACCT (sugars k3 d10 k3, PS) | 81% and 66% | target mRNA inhibition (KARPAS-229, 0.44444 µM): 38%; target mRNA inhibition (KARPAS-229, 1.33333 µM): 44%; target mRNA inhibition (KARPAS-229, 12 µM): 78% |
| GGAGTGAGACGAGCAA (sugars kkddddddddddkeke, PS) | 33% | – |
| GCTTGGTCTTGACCTC (sugars kkdddddddddkekek, PS) | 33% | – |
| GGTGTATTTCCCTGTC (sugars kddddddddddkekek, PS) | 0% | – |
| CTAAACCATTCTATGC (sugars k3 d10 k3, PS) | 0% | – |
| TGAGTCTCAAACCAGG (sugars kkddddddddddkeke, PS) | 7% | – |
| GGTCTGGCCCTTTTGG (sugars kkddddddddkekekk, PS) | 0% | – |
| CCTTCTGCAGGGAGTC (sugars kkkddddddddkdkdk, PS) | 0% | – |
| AAGGGCACAGCGCAGG (sugars kekdddddddddeekk, PS) | 0% | – |

| Sequence | target mRNA inhibition (KARPAS-229, 4 µM) | further results |
| --- | --- | --- |
| GTCTTGACCTCCCGCT (sugars kkdddddddddkdkdk, PS) | 46% | – |
| CATTCTATGCCTTTTA (sugars kkddddddddkekekk, PS) | 56% | – |
| GATGGTGTTATCTCCG (sugars kkdddddddddkekek, PS) | 0% | – |
| CTGTCACATCTCCACA (sugars k2 d9 e3 k2, PS) | 10% | – |
| GTCTTTGAGGTCTGGG (sugars kddddddddddkekek, PS) | 0% | – |
| AGTCATGGGCGTGAGGC (sugars kdddddddddkekeked, PS) | 17% | – |
| CCAATGCAACATCCAT (sugars kkdddddddddkdkdk, PS) | 0% | – |
| TCATTTGCCTTCTGCA (sugars k3 d10 k3, PS) | 6% | – |
| AGGAAGTGAGTCTCAA (sugars kkkdddddddddkeke, PS) | 21% | – |
| CAGGTTCTTGGACTCT (sugars k3 d10 k3, PS) | 0% | – |
| CAGGTTCTTGGACTCT (sugars kekdddddddddeekk, PS) | 48% and 62% | target mRNA inhibition (KARPAS-229, 0.44444 µM): 34%; target mRNA inhibition (KARPAS-229, 1.33333 µM): 48%; target mRNA inhibition (KARPAS-229, 12 µM): 74% |
| CACTGACACAGGCGGA (sugars kkdddddddddkekek, PS) | 0% | – |
| TGTCACATCTCCACAT (sugars kdddddddddkekeke, PS) | 0% | – |
| CATTCCATATACACAC (sugars kkkddddddddkekek, PS) | 32% | – |
| AAGGGCACAGCGCAGG (sugars k3 d9 k3 e1, PS) | 3% | – |
| CTTCTGCAGGGAGTCA (sugars k3 d10 k3, PS) | 0% | – |
| CACATCTCCACATCAG (sugars kkkdddddddddkeke, PS) | 38% | – |
| TCACCACTGTGTACCC (sugars k2 d9 e3 k2, PS) | 0% | – |
| GCTGTCACATCTCCAC (sugars kkkddddddddkdkdk, PS) | 35% | – |
| GGAGTGAGACGAGCAA (sugars kkddddddddkekekk, PS) | 38% | – |
| TATTTCTGCTCCAGGT (sugars kkdddddddddkdkdk, PS) | 27% | – |
| TGTCTAGTGTCATGGA (sugars kkkddddddddkekek, PS) | 57% | – |
| GGGCACAGCGCAGGTT (sugars kkddddddddkekekk, PS) | 61% and 66% | target mRNA inhibition (KARPAS-229, 0.44444 µM): 15%; target mRNA inhibition (KARPAS-229, 1.33333 µM): 32%; target mRNA inhibition (KARPAS-229, 12 µM): 76% |
